Measurements from patent US7872122B2, “Process for making Biolimus A9” (Chunghwa Chemical Synthesis & Biotech Co., Ltd., priority 2009, dated 2011).

Assay: Stability of Biolimus A9 at 40° C. with added anti-oxidant BHT
Type: physicochemical
From the text: The yield data of different amounts of anti-oxidant as added into Biolimus A9 with respect to time lapse of weeks are summarized in Table 1 as below-mentioned.

Purity (%) of Biolimus A9 (BHT 0.0% (w/w), 0 week): 99.7% | Purity (%) of Biolimus A9 (BHT 0.0% (w/w), 2 weeks): 98.2% | Purity (%) of Biolimus A9 (BHT 0.0% (w/w), 4 weeks): 88.4% | Purity (%) of Biolimus A9 (BHT 0.0% (w/w), 6 weeks): 69.7% | Purity (%) of Biolimus A9 (BHT 0.1% (w/w), 0 week): 99.7% | Purity (%) of Biolimus A9 (BHT 0.1% (w/w), 2 weeks): 99.5% | Purity (%) of Biolimus A9 (BHT 0.1% (w/w), 4 weeks): 99.5% | Purity (%) of Biolimus A9 (BHT 0.1% (w/w), 6 weeks): 99.5% | Purity (%) of Biolimus A9 (BHT 0.2% (w/w), 0 week): 99.6% | Purity (%) of Biolimus A9 (BHT 0.2% (w/w), 2 weeks): 99.6% | Purity (%) of Biolimus A9 (BHT 0.2% (w/w), 4 weeks): 99.5% | Purity (%) of Biolimus A9 (BHT 0.2% (w/w), 6 weeks): 99.5% | Purity (%) of Biolimus A9 (BHT 0.5% (w/w), 0 week): 99.6% | Purity (%) of Biolimus A9 (BHT 0.5% (w/w), 2 weeks): 99.5% | Purity (%) of Biolimus A9 (BHT 0.5% (w/w), 4 weeks): 99.4% | Purity (%) of Biolimus A9 (BHT 0.5% (w/w), 6 weeks): 99.4% | Purity (%) of Biolimus A9 (BHT 1.0% (w/w), 0 week): 99.6% | Purity (%) of Biolimus A9 (BHT 1.0% (w/w), 2 weeks): 99.5% | Purity (%) of Biolimus A9 (BHT 1.0% (w/w), 4 weeks): 99.4% | Purity (%) of Biolimus A9 (BHT 1.0% (w/w), 6 weeks): 99.4% | yield after six-week storage (BHT added for 0.1%, 0.2, 0.5%, and 1% (w/w), six-week storage): more than 99.4%
Compound: CCOCCO[C@@H]1CC[C@@H](C[C@@H](C)[C@@H]2CC(=O)[C@H](C)/C=C(\C)[C@@H](O)[C@@H](OC)C(=O)[C@H](C)C[C@H](C)/C=C/C=C/C=C(\C)[C@@H](OC)C[C@@H]3CC[C@@H](C)[C@@](O)(O3)C(=O)C(=O)N3CCCC[C@H]3C(=O)O2)C[C@H]1OC [Biolimus A9]
